1 molecule from ChEMBL document CHEMBL4507319 (2021) can be followed below.

The target of experiment [1] is T1, Calcium/calmodulin-dependent protein kinase type IV (Homo sapiens) (UniProt Q16566).
T1 sequence (whole entry): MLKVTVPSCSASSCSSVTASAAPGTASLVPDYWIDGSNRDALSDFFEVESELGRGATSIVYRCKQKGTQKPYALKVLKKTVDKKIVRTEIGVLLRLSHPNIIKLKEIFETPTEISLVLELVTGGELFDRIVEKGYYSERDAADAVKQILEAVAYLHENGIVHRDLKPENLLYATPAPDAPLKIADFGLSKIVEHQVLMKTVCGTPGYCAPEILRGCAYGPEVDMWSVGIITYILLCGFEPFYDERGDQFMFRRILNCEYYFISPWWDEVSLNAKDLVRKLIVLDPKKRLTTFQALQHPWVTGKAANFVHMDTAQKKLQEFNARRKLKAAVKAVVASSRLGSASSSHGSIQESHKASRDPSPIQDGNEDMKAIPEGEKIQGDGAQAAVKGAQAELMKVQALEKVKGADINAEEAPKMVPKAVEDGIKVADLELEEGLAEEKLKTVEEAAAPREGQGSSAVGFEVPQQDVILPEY
The experiment can be described thus: CaMKIV(h) Eurofins kinase panel. The conditions noted are these: Compound concentration 1.0 uM.

The next experiment has as its system A-375. The experiment can be described thus: A375 cell line Proliferation assay. In kind it is functional, Homo sapiens. The conditions noted are these: time 3 day.
Experiment [2] concerns the target Macrophage colony-stimulating factor 1 receptor (Homo sapiens) (UniProt P07333). The experiment can be described thus: Fms(h) Eurofins kinase panel. The conditions noted are these: Compound concentration 1.0 uM.
Experiment [3] concerns the target Mitogen-activated protein kinase kinase kinase 10 (Homo sapiens) (UniProt Q02779). The experiment can be described thus: MLK2(h) Eurofins kinase panel. As to conditions: Compound concentration 1.0 uM.
For experiment [4], the target named is T2, Ephrin type-A receptor 8 (Homo sapiens) (UniProt P29322).
T2 sequence (whole entry): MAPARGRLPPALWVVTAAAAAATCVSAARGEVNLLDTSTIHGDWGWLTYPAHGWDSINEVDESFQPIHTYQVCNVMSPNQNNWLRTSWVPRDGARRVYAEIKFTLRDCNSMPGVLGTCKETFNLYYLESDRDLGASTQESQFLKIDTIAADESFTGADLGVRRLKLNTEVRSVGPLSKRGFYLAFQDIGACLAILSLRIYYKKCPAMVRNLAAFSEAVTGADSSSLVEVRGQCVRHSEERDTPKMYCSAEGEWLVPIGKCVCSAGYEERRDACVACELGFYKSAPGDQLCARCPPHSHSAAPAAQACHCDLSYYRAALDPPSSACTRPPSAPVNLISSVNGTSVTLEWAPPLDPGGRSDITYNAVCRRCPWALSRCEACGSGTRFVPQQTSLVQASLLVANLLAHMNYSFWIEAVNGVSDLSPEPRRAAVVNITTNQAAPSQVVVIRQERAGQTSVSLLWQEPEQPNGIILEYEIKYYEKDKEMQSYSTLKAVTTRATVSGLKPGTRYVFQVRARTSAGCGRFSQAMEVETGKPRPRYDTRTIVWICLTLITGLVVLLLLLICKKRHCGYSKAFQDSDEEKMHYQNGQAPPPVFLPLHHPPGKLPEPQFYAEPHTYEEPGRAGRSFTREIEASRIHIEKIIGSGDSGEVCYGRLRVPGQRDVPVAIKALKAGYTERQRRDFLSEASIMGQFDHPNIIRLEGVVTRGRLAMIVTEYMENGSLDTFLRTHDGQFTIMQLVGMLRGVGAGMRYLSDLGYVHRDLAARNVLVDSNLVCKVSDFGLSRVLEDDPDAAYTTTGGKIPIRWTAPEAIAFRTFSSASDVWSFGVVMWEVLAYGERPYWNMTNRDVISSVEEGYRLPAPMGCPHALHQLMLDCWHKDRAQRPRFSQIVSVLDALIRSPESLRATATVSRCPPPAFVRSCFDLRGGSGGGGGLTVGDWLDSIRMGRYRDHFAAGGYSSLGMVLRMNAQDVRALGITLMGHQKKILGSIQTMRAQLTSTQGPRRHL
The experiment can be described thus: EphA8(h) Eurofins kinase panel. The conditions noted are these: Compound concentration 1.0 uM.

The target of experiment [5] is T3, Activin receptor type-1B (Homo sapiens) (UniProt P36896).
T3 sequence (whole entry): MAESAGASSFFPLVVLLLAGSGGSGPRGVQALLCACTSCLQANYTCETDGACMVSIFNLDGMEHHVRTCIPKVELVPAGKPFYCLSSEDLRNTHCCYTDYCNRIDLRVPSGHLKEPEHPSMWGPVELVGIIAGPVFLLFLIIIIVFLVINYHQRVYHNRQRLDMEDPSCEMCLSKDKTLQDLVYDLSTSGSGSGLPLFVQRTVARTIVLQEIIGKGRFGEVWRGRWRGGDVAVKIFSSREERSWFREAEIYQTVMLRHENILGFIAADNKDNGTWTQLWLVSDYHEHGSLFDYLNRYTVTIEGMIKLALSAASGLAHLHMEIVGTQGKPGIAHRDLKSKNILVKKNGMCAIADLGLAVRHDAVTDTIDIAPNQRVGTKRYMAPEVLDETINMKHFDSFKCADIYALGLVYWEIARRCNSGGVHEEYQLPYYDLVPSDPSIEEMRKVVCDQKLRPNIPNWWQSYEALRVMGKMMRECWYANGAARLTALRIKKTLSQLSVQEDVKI
The experiment in a line: ALK4(h) Eurofins kinase panel. As to conditions: Compound concentration 1.0 uM.

Sequence of Mitogen-activated protein kinase kinase kinase 10 (Homo sapiens) (Q02779 whole entry, looked up): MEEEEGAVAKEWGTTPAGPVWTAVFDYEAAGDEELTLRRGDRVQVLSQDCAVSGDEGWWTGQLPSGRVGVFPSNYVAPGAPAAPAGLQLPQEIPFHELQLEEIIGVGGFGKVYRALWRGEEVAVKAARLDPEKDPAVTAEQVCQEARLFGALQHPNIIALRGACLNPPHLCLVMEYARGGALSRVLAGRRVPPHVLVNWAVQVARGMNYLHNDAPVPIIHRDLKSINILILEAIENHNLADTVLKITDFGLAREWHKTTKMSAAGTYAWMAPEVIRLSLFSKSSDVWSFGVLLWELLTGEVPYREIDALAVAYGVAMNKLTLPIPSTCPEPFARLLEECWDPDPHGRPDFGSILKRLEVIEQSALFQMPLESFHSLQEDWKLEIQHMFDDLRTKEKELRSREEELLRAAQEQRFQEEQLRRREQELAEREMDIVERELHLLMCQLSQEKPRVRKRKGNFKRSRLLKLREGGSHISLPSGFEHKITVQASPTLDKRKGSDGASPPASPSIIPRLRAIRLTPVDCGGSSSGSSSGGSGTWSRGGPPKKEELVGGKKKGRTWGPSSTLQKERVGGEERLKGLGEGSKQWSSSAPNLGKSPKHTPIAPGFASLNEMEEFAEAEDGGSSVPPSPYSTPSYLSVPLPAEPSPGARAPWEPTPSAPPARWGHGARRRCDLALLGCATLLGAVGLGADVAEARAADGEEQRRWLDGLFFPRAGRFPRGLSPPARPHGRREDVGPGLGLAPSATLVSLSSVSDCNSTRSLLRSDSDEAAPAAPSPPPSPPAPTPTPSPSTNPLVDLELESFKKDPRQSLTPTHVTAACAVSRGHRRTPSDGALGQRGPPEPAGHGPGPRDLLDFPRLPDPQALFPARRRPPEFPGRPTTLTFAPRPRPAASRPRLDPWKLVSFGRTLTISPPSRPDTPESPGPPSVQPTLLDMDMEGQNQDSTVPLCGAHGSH
Sequence of Macrophage colony-stimulating factor 1 receptor (Homo sapiens) (P07333 whole entry): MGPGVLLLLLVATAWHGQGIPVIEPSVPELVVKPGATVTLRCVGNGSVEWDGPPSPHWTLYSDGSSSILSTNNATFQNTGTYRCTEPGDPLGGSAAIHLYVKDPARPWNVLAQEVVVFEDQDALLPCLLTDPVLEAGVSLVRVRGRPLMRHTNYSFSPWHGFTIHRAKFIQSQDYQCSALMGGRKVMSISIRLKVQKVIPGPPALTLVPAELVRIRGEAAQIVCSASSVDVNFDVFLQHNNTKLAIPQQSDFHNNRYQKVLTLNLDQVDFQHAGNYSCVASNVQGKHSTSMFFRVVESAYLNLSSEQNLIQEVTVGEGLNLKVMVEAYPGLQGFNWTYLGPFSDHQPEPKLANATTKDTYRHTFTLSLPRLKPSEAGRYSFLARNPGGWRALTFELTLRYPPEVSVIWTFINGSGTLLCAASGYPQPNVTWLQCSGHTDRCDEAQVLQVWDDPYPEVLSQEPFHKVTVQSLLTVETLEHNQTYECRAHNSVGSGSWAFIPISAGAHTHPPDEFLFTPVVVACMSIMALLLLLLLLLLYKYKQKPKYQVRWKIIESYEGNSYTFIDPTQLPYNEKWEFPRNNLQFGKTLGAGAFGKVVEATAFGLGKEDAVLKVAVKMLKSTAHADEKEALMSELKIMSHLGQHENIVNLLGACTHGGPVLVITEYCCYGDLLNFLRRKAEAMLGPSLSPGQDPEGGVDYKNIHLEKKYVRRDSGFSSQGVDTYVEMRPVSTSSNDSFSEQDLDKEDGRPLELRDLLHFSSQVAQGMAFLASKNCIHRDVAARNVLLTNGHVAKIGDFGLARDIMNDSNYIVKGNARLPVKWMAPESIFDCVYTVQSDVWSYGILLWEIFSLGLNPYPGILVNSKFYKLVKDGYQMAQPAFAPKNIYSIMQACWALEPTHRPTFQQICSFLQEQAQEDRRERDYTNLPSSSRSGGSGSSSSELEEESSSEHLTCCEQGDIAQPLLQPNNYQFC

In the case of `CCc1ccccc1C(=O)Nc1n[nH]c2c(C)c(F)c(C3C(C#N)=C(C)N(C)C(C)=C3C#N)cc12` [BAY-3827], the % residual kinase activity is 111% in experiment [1]; 99% in experiment [2]; 94% in experiment [3]; 102% in experiment [4]; 90% in experiment [5]. For the same molecule, the “Cell Proliferation IC50” value in the experiment on A-375 is 22.8 µM.
